# Source: article PMC12866823, “The Pivotal Role of GR‐CAR Pathway in Fetal Programming of Hepatic Cytochrome P450 3A Alteration in Adulthood” (Advanced Science, 2025)
# Tests used:
# [1] = tested on: bone marrow mesenchymal stem cells hepatoid differentiated cell (BHDC); assay: Treatment of BHDC: mRNA, protein, ChIP-PCR and CoIP readouts; format: cell-based, rat; conditions: for interaction between GR and P300/CBP (co-immunoprecipitation): 500 x 10^-9 M DEX or 1200 x 10^-9 M CORT; for gene and protein expression of P300/CBP, binding of GR-P300/CBP to CAR promoter, acetylation levels of H3K9 and H3K27: dose-dependent
# Protocol: Protocols for preparing BMSCs and the hepatoid‐differentiated cells (BHDCs) were based on our prior study.^[ [98] ^] BMSCs were harvested from PW3 male rats and cultured at a density of 4 × 10^5 cells per well in six‐well plates with growth medium (αMEM with 10% fetal bovine serum (FBS), […] streptomycin, and 100 U mL^−1 penicillin).
# All primers are listed in Table S2 (Supporting Information).
# Results were quantified using Image J Launcher.
# Cells were cross‐linked with 1% formaldehyde at room temperature, and glycine (final concentration 125 × 10^−3 M) was added to terminate the reaction.^[ [105] ^] The suspensions were sonicated to obtain 200‐800 bp DNA fragments, and then were incubated with Agarose‐protein A/G beads and divided into multiple portions. Corresponding antibodies (H3K9ac, H3K14ac, H3K27ac, H3K4me2, H3K27me3, GR, and CAR) and IgG were added and shaken overnight at 4 °C for immunoprecipitation, followed by the addition of 200 µg mL^−1 proteinase K at 65 °C overnight. DNA was isolated from each immunoprecipitation and subjected to RT‐qPCR analysis. The Jaspar database was consulted to query gene transcription binding sites.^[ [107] ^] Primers for amplification of multiple regions of the CAR promoter were designed using the UCSC Genome Browser (http://genome.ucsc.edu/) and Primer 3 Input Browser (http://primer3.ut.ee/). The primer sequences are listed in Table S4 (Supporting Information). Data from RT‐qPCR were used to calculate the abundance of proteins enriched in the promoters of each gene using the following formula: IP/input = 100 × 2^Ct input DNA – Ct IP DNA.
# Tissue and cell lysates were collected, and protein concentrations were quantified using a BCA protein quantification kit. Protein A agarose gel beads (20 to 40 µL) were washed 2 to 3 times with lysis buffer and centrifuged at 3000 rpm for 5 min each time. Between 500 and 1000 µL of homogenized lysis supernatant from tissues or cells were transferred to a clean EP tube, and 1–10 µL of specific primary antibody was added to incubate overnight at 4 °C. IgG from the same species served as a negative control. Subsequently, 20 µL of A/G agarose gel beads were added, and the mixture was incubated for 3‐4 h at 4 °C. After incubation, the sample was centrifuged at 1000 g for 5 min at 4 °C to collect the immunoprecipitated complexes; the mixture was then washed 3‐4 times with 1 mL ice‐cold IP lysate (without protease inhibitor) by centrifugation at 3000 g for 5 min. Following the final wash, 40 µL of 1 × SDS loading buffer containing mercaptoethanol was added, boiled for 10 min at 100 °C, centrifuged at 1000 g for 5 min at 4 °C, and 15–20 µL of supernatant was used for WB assay.
# [2] = tested on: rat fetal primary hepatocytes; assay: Treatment of rat fetal primary hepatocytes: mRNA and protein expression; format: cell-based; conditions: DEX 20-500 x 10^-9 M or CORT 300-1200 x 10^-9 M, concentration-dependent
# Protocol: (§1) Cells and liver samples were subjected to RNA isolation using a TRIZOL reagent. Process of RNA extraction and cDNA preparation was according to our prior work.^[ [103] ^] qPCR was performed using the Cham Q TM Universal SYBR® qPCR Master Mix on the QuantStudio®5 Real‐Time PCR System (Thermo Scientific, Waltham, MA, USA) for detection. All primers are listed in Table S2 (Supporting Information). Target gene expression was standardized using housekeeping gene and computed using the 2^−ΔΔCt methodology. For the gene expression levels assayed in each tissue of fetal mice, n indicates a litter (with each n ranging from 11‐12).
# (§2) Total protein was extracted from the liver and cells using RIPA lysis buffer, and protein concentration was determined using a bicinchoninic acid (BCA) assay. Nuclear proteins were extracted using the Nuclear Protein Extraction Kit (no. P0028, Beyotime Institute of Biotechnology, Shanghai, China).^[ [104] ^] To verify the purity of extracted cellular fractions, we examined the levels of cytoplasmic localization proteins (ACTB and GAPDH) and nuclear localization protein (H3) in cytoplasmic and nuclear samples, respectively. […] Details of the western blot procedure have been described previously.^[ [105] ^] […] Results were quantified using Image J Launcher.
# GR = assay: Dual-luciferase assay of transcriptional function of GR on CAR; format: cell-based, human; conditions: with DEX treatment
# Protocol: The dual‐luciferase reporter plasmid of pTol2‐cmv‐Fluc‐bGH polyA‐EF1α‐Rluc‐polyA was synthesized by Tsingke company and worked as a positive control. Overlapping PCR was performed to generate insert of the target gene promoter base on HepG2 genomic DNA template. Employing Hifi assembly kit, promoter fragments were inserted into SpeI/NtoI site of reporter vector, and coding sequences were inserted into XbaI/XhoI site of pTol2‐EGFP‐polyA plasmid. 48 h after transfection, cells were collected for dual‐luciferase assay according to Promega luciferase kit instructions. The primers for overlap PCR are listed in Table S5 (Supporting Information).
# LS174T = assay: Treatment of LS174T with hydrocortisone; format: cell-based, human
# Protocol: as §1
# as §2, with “Launcher. […]” for “Launcher.”
# HepG2 = assay: Treatment of HepG2 with hydrocortisone; format: cell-based, human
# Protocol: as §1
# as §2, with “Launcher. […]” for “Launcher.”
# [3] = DEX 20-500 x 10^-9 M or CORT 300-1200 x 10^-9 M
# [4] = 500 x 10^-9 M DEX with 10 x 10^-6 M RU486 or 100 x 10^-9 M GR siRNA
# [5] = 0, 300, 600, 1200 nM, concentration-dependent
smiles,measurement,setting,value
"C[C@]12C[C@H](O)[C@H]3[C@@H](CCC4=CC(=O)CC[C@@]43C)[C@@H]1CC[C@@H]2C(=O)CO [CORT, corticosterone]",interaction between GR and P300/CBP (co-immunoprecipitation),[1],significantly enhanced
same,"CYP3A and CYP2B expression, gene and protein levels","[1]; DEX 20-500 x 10^-9 M or CORT 300-1200 x 10^-9 M, 24 h, concentration-dependent",significantly induced CYP3A and CYP2B expression at both the gene and protein levels
same,"gene and protein expression of P300/CBP, binding of GR-P300/CBP to CAR promoter, acetylation levels of H3K9 and H3K27",[1]; [3],significantly induced
same,"CYP3A and CYP2B expression, gene and protein levels",[2],significantly induced CYP3A and CYP2B expression at both the gene and protein levels
"C[C@@H]1C[C@H]2[C@@H]3CCC4=CC(=O)C=C[C@]4(C)[C@@]3(F)[C@@H](O)C[C@]2(C)[C@@]1(O)C(=O)CO [DEX, dexamethasone]",interaction between GR and P300/CBP (co-immunoprecipitation),[1],significantly enhanced
same,"gene and protein expression of P300/CBP, binding of GR-P300/CBP to CAR promoter, acetylation levels of H3K9 and H3K27",[1]; [3],significantly induced
"C=C1[C@@H](O)[C@@H]2O[C@]3(CC[C@H](/C=C/[C@@H](C)[C@@H]4CC(C)=C[C@@]5(O[C@H](C[C@@](C)(O)C(=O)O)CC[C@H]5O)O4)O3)CC[C@H]2O[C@@H]1[C@@H](O)C[C@H](C)[C@H]1O[C@@]2(CCCCO2)CC[C@H]1C [OA, okadaic acid]",effect on DEX-enhanced total and nuclear protein levels of CAR,[1]; 10 x 10^-9 M OA with DEX,reversed
same,expression of downstream CYP3A and CYP2B,[1]; 10 x 10^-9 M OA with or without DEX,significantly reduced the expression of downstream CYP3A and CYP2B with or without DEX incubation
"CC#C[C@]1(O)CC[C@H]2[C@@H]3CCC4=CC(=O)CCC4=C3[C@@H](c3ccc(N(C)C)cc3)C[C@@]21C [RU486, mifepristone]",effect on GR protein nuclear translocation and CYPs expression induced by DEX,[1]; 10 x 10^-6 M with 500 x 10^-9 M DEX,significantly inhibited protein nuclear translocation of GR and expression of CYPs induced by DEX treatment
same,effect on CAR induction by DEX,[1]; [4],suppressed
same,"effect on DEX induction of P300/CBP expression, P300/CBP binding to CAR promoter and H3K9/H3K27 acetylation",[1]; [4],"reversed the induction of P300/CBP expression, the binding of P300/CBP to the CAR promoter, and the acetylation levels of H3K9 and H3K27 by DEX"
same,effect on transcriptional activity of GR (on CAR) induced by DEX,GR,blocked transcriptional activity of GR induced by DEX
C[C@]12CCC(=O)C=C1CC[C@@H]1[C@@H]2[C@@H](O)C[C@@]2(C)[C@H]1CC[C@]2(O)C(=O)CO [hydrocortisone],expression of downstream genes,LS174T; [5],could significantly induce the expression of downstream genes
same,related indicators and nuclear translocation of GR and CAR,LS174T; 1200 x 10^-9 M,significantly increased
same,expression of downstream genes,HepG2; [5],could significantly induce the expression of downstream genes
same,related indicators and nuclear translocation of GR and CAR,HepG2; 1200 x 10^-9 M,significantly increased
